Laboratory results reported in BindingDB's records for doi:10.1016/j.bmcl.2004.05.049 (Procyon Biopharma, 2004).

Target: T1, Dimer of Gag-Pol polyprotein [501-599] (Human immunodeficiency virus 1, UniProt P03367)
T1 construct: 501-599
Assay: Protease Inhibition Assay
Details: pH 4.7; 30 °C
Procedure: HIV-1 protease activity was measured by a continuous fluorometric assay using the internally quenched fluorogenic substrate DABCYL-Ser-Gln-Asn-Tyr-Pro-Ile-Val-Gln-EDANS. The proteolytic activity can be monitored by the increase in fluorescence intensity, and the protease products were analyzed by HPLC.

Question: Which Ki does the source give for `Cc1ccc(S(=O)(=O)N(CC(C)C)[C@@H](CCCCNC(=O)NCc2ccccn2)C(=O)O)cc1` [(2S)-2-[(4-methylbenzene)(2-methylpropyl)sulfonamido]-6-{[(pyridin-2-ylmethyl)carbamoyl]amino}hexanoic acid] here?
Answer: Its Ki is greater than 300 nM.

Question: `Cc1ccc(S(=O)(=O)N(CC(C)C)[C@@H](CCCCNC(=O)N(CCc2ccccc2)Cc2ccccc2)C(=O)O)cc1` [(2S)-6-{[benzyl(2-phenylethyl)carbamoyl]amino}-2-[(4-methylbenzene)(2-methylpropyl)sulfonamido]hexanoic acid] was tested. Which Ki did it give?
Answer: Its Ki is greater than 300 nM.
